# In US12552783B2, “Modulators of proteolysis and associated methods of use” (Arvinas Operations, Inc., priority 2018, dated 2026):
# Columns and labels:
# [1] = biological target: T1, KRas (Homo sapiens, UniProt P01116, G12C); assay: KRas degradation in SW1573 cells by Western blot, normalized to GAPDH (data of Table 14); type: cell-based
# Procedure, shortened: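 SW1573 cells, homozygous for the KRas G12C mutation and maintained in DMEM with 10% FBS and 1% penicillin-streptomycin, were seeded in 12-well plates, allowed to attach overnight at 37° C. under 5% CO2, then serum-starved for 24 hours before compound exposure. KRas levels were measured by Western blot, normalized to GAPDH, and compared with DMSO controls to give percent degradation, DC50 and Dmax.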
# [2] = biological target: T1, KRas; assay: KRas degradation in NCI-H2030 cells by Western blot, normalized to GAPDH (data of Table 14); type: cell-based; design: host or cells: NCI-H2030; details: for Dmax: NCI-H2030
# Procedure, shortened: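 Cells serum-starved 24 h, then treated at 0.3, 1 and 3 μM in 0.1% DMSO, 24 h for VHL-based compounds and 72 h for others. Lysates (10 μg protein) immunoblotted; KRas normalized to GAPDH, degradation visually estimated below 25% or quantified versus DMSO lane, giving DC50 and DMax.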
Compound,DC50 ([1]; SW1573) [nM],Dmax ([1]; SW1573) [%],"Percent Degradation at Indicated Concentration (μM) ([1]; SW1573, 0.03 μM)","Percent Degradation at Indicated Concentration (μM) ([1]; SW1573, 0.1 μM)","Percent Degradation at Indicated Concentration (μM) ([1]; SW1573, 0.3 μM)","Percent Degradation at Indicated Concentration (μM) ([1]; SW1573, 1 μM)","Percent Degradation at Indicated Concentration (μM) ([1]; SW1573, 3 μM)",DC50 ([2]; H2030) [nM],"Percent Degradation at Indicated Concentration (μM) ([2]; H2030, 0.03 μM)","Percent Degradation at Indicated Concentration (μM) ([2]; H2030, 0.1 μM)","Percent Degradation at Indicated Concentration (μM) ([2]; H2030, 0.3 μM)","Percent Degradation at Indicated Concentration (μM) ([2]; H2030, 1 μM)","Percent Degradation at Indicated Concentration (μM) ([2]; H2030, 3 μM)",Dmax [2] [%],DC50 ([1]; SW1573 cells) [nM],Dmax ([1]; SW1573 cells) [%],"Percent Degradation at Indicated Concentration (μM) ([1]; SW1573 cells, 0.01 μM)","Percent Degradation at Indicated Concentration (μM) ([1]; SW1573 cells, 0.03 μM)","Percent Degradation at Indicated Concentration (μM) ([1]; SW1573 cells, 0.1 μM)","Percent Degradation at Indicated Concentration (μM) ([1]; SW1573 cells, 0.3 μM)",further results
"C=CC(=O)N1CCN(c2nc(NCCC(=O)N(C)CCOCCOCCOCCOCC(=O)N[C@H](C(=O)N3C[C@H](O)C[C@H]3C(=O)N[C@@H](C)c3ccc(-c4scnc4C)cc3)C(C)(C)C)nc3c(F)c(-c4cc(O)cc5ccccc45)c(Cl)cc23)CC1 (racemic) [compound 196, (2RS,4SR)-1-((RS)-21-((4-(4-acryloylpiperazin-1-yl)-6-chloro-8-fluoro-7-((SR)-3-hydroxynaphthalen-1-yl)quinazolin-2-yl)amino)-2-(tert-butyl)-18-methyl-4,19-dioxo-6,9,12,15-tetraoxa-3,18-diazahenicosanoyl)-4-hydroxy-N-((RS)-1-(4-(4-methylthiazol-5-yl)phenyl)ethyl)pyrrolidine-2-carboxamide]",≥ 1000,≤ 35,C (Percent Degradation: C ≤ 35),C (Percent Degradation: C ≤ 35),C (Percent Degradation: C ≤ 35),C (Percent Degradation: C ≤ 35),C (Percent Degradation: C ≤ 35),≥ 1000,C (Percent Degradation: C ≤ 35),C (Percent Degradation: C ≤ 35),C (Percent Degradation: C ≤ 35),C (Percent Degradation: C ≤ 35),C (Percent Degradation: C ≤ 35),≤ 35,–,–,–,–,–,–,–
"C=CC(=O)N1CCN(c2nc(OCCN(C)CCOCCOCCOCCOCC(=O)N[C@H](C(=O)N3C[C@H](O)C[C@H]3C(=O)N[C@@H](C)c3ccc(-c4scnc4C)cc3)C(C)(C)C)nc3c(F)c(-c4cc(O)cc5ccccc45)c(Cl)cc23)CC1 [compound 473, (2S,4R)-1-((2S)-20-((4-(4-acryloylpiperazin-1-yl)-6-chloro-8-fluoro-7-(3-hydroxynaphthalen-1-yl)quinazolin-2-yl)oxy)-2-(tert-butyl)-18-methyl-4-oxo-6,9,12,15-tetraoxa-3,18-diazaicosanoyl)-4-hydroxy-N-((S)-1-(4-(4-methylthiazol-5-yl)phenyl)ethyl)pyrrolidine-2-carboxamide]",100 to 1000,35 to 70,C (Percent Degradation: C ≤ 35),C (Percent Degradation: C ≤ 35),B (35 < B < 70),B (35 < B < 70),B (35 < B < 70),100 to 1000,C (Percent Degradation: C ≤ 35),C (Percent Degradation: C ≤ 35),C (Percent Degradation: C ≤ 35),C (Percent Degradation: C ≤ 35),C (Percent Degradation: C ≤ 35),≤ 35,–,–,–,–,–,–,"Percent Degradation at Indicated Concentration (μM) ([1]; SW1573, 10 μM): B (35 < B < 70); Percent Degradation at Indicated Concentration (μM) ([2]; H2030, 10 μM): C (Percent Degradation: C ≤ 35)"
"C=CC(=O)N1CCN(c2nc(O[C@H](C)CN3CCC(OCCOCCOCCOCCOCC(=O)N[C@H](C(=O)N4C[C@H](O)C[C@H]4C(=O)N[C@@H](C)c4ccc(-c5scnc5C)cc4)C(C)(C)C)CC3)nc3c(F)c(-c4cc(O)cc5ccccc45)c(Cl)cc23)CC1 [compound 401, (2S,4R)-1-((2S)-17-((1-((2R)-2-((4-(4-acryloylpiperazin-1-yl)-6-chloro-8-fluoro-7-(3-hydroxynaphthalen-1-yl)quinazolin-2-yl)oxy)propyl)piperidin-4-yl)oxy)-2-(tert-butyl)-4-oxo-6,9,12,15-tetraoxa-3-azaheptadecanoyl)-4-hydroxy-N-((S)-1-(4-(4-methylthiazol-5-yl)phenyl)ethyl)pyrrolidine-2-carboxamide]",–,–,–,–,–,–,–,–,–,–,–,–,–,–,≥ 1000,≤ 35,C (Percent Degradation: C ≤ 35),C (Percent Degradation: C ≤ 35),C (Percent Degradation: C ≤ 35),C (Percent Degradation: C ≤ 35),"Percent Degradation at Indicated Concentration (μM) ([1]; SW1573 cells, 1 μM): C (Percent Degradation: C ≤ 35); Percent Degradation at Indicated Concentration (μM) ([2]; H2030 cells, 0.3 μM): C (Percent Degradation: C ≤ 35); Percent Degradation at Indicated Concentration (μM) ([2]; H2030 cells, 1 μM): C (Percent Degradation: C ≤ 35); Percent Degradation at Indicated Concentration (μM) ([2]; H2030 cells, 3 μM): C (Percent Degradation: C ≤ 35); Dmax ([2]; H2030 cells): ≤ 35%"
"C=CC(=O)N1CCN(c2nc(O[C@H](C)CN3CCC(OCCOCCOCCOCCOCCOCC(=O)N[C@H](C(=O)N4C[C@H](O)C[C@H]4C(=O)N[C@@H](C)c4ccc(-c5scnc5C)cc4)C(C)(C)C)CC3)nc3c(F)c(-c4cc(O)cc5ccccc45)c(Cl)cc23)CC1 [compound 402, (2S,4R)-1-((2S)-20-((1-((2R)-2-((4-(4-acryloylpiperazin-1-yl)-6-chloro-8-fluoro-7-(3-hydroxynaphthalen-1-yl)quinazolin-2-yl)oxy)propyl)piperidin-4-yl)oxy)-2-(tert-butyl)-4-oxo-6,9,12,15,18-pentaoxa-3-azaicosanoyl)-4-hydroxy-N-((S)-1-(4-(4-methylthiazol-5-yl)phenyl)ethyl)pyrrolidine-2-carboxamide]",–,–,–,–,–,–,–,–,–,–,–,–,–,–,≥ 1000,≤ 35,C (Percent Degradation: C ≤ 35),C (Percent Degradation: C ≤ 35),C (Percent Degradation: C ≤ 35),C (Percent Degradation: C ≤ 35),"Percent Degradation at Indicated Concentration (μM) ([1]; SW1573 cells, 1 μM): C (Percent Degradation: C ≤ 35); Percent Degradation at Indicated Concentration (μM) ([2]; H2030 cells, 0.3 μM): C (Percent Degradation: C ≤ 35); Percent Degradation at Indicated Concentration (μM) ([2]; H2030 cells, 1 μM): C (Percent Degradation: C ≤ 35); Percent Degradation at Indicated Concentration (μM) ([2]; H2030 cells, 3 μM): C (Percent Degradation: C ≤ 35); Dmax ([2]; H2030 cells): ≤ 35%"
